Measurements: PubChem BioAssay (NCI)
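Grown in 96-well plates, cells were treated for 48 hours with each compound at five concentrations. Insufficient inhibition: endpoint recorded as highest concentration tested. Definition used: TGI = concentration required for complete inhibition of growth.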

What was measured:
Experiment in all cases: growth of human tumour cells (NCI), 48 h
OVCAR-8 ovarian = test system: OVCAR-8 ovarian
A549 NSCLC = test system: A549 NSCLC
MOLT-4 leukemia = test system: MOLT-4 leukemia
RXF 393 renal = test system: RXF 393 renal
SF-539 CNS = test system: SF-539 CNS
HCT-116 colon = test system: HCT-116 colon
T-47D breast = test system: T-47D breast
HL-60(TB) leukemia = test system: HL-60(TB) leukemia
MDA-MB-231 breast = test system: MDA-MB-231 breast
M14 melanoma = test system: M14 melanoma
HT29 colon = test system: HT29 colon
DU-145 prostate = test system: DU-145 prostate
OVCAR-3 ovarian = test system: OVCAR-3 ovarian
SK-MEL-5 melanoma = test system: SK-MEL-5 melanoma
HCT-15 colon = test system: HCT-15 colon
SNB-19 CNS = test system: SNB-19 CNS

Row | SMILES | TGI (OVCAR-8 ovarian) | TGI (A549 NSCLC) | TGI (MOLT-4 leukemia) | TGI (RXF 393 renal) | TGI (SF-539 CNS) | TGI (HCT-116 colon) | TGI (T-47D breast) | TGI (HL-60(TB) leukemia) | TGI (MDA-MB-231 breast) | TGI (M14 melanoma) | TGI (HT29 colon) | TGI (DU-145 prostate) | TGI (OVCAR-3 ovarian) | TGI (SK-MEL-5 melanoma) | TGI (HCT-15 colon) | TGI (SNB-19 CNS)
1 | C[n+]1ccc(/C2=C3\C=CC(=N3)/C(c3cc[n+](C)cc3)=c3/cc/c([nH]3)=C(\c3cc[n+](C)cc3)C3=N/C(=C(/c4cc[n+](C)cc4)C4C=CC2N4)C=C3)cc1 | > 100 µM | > 100 µM | > 100 µM | > 100 µM | > 100 µM | > 100 µM | > 100 µM | > 100 µM | > 100 µM | > 100 µM | > 100 µM | > 100 µM | > 100 µM | > 100 µM | > 100 µM | > 100 µM
2 | O=C1C=CC2(C=C1)O[C@H](Cc1ccccc1)[C@@H](Cc1ccccc1)O2 | 0.503 µM | 18.7 µM | […] | 0.974 µM | 1.02 µM |  | > 100 µM | 6.52 µM | 5.44 µM | 2.15 µM | 2.81 µM | 5.89 µM | 1.17 µM | 1.76 µM | 0.866 µM | 6.47 µM
3 | O=C1OCC2OC(=O)c3cc(O)c(O)c(O)c3-c3c(O)c(O)c(O)c4c3C(=O)OC(C2OC(=O)c2cc(O)c(O)c(O)c2-c2c1cc(O)c(O)c2O)C1OC(=O)c2c-4c(O)c(O)c(O)c2[C@@H]1C(O)C(O)C(O)C(O)CO (some centres undefined) | 44.1 µM | 43.7 µM | 49.8 µM | 34.3 µM |  | 31.3 µM | 45.2 µM | 50.8 µM | 30.5 µM | 39.4 µM | 36 µM | 47.5 µM | 80.6 µM | 28 µM | 37.7 µM | > 100 µM
4 | CC(C)(C)OC(=O)N/N=C(/N)Cc1ccc(Cl)cc1 | > 100 µM | > 100 µM | > 100 µM | > 100 µM |  | > 100 µM | > 100 µM |  | > 100 µM | > 100 µM | > 100 µM | > 100 µM | > 100 µM | > 100 µM | > 100 µM | > 100 µM
5 | COc1ccc(C2SCC(=O)N2c2ccc(-c3ccc(-n4c(-c5ccccc5)nc5ccccc5c4=O)cc3)cc2)cc1OC (centres undefined) | > 100 µM | > 100 µM | > 100 µM | > 100 µM | > 100 µM | > 100 µM | > 100 µM | > 100 µM | > 100 µM | > 100 µM | > 100 µM | > 100 µM | > 100 µM |  | > 100 µM | > 100 µM
6 | CCOC(=O)C1=NOC2(C=C(Br)C(=O)C(Br)=C2)C1 | 5.3 µM | 59 µM | 0.304 µM | 3.54 µM | 20.2 µM | 2.63 µM | 3.99 µM | 1.1 µM | 21.9 µM | 3.29 µM | 4.68 µM | 17.8 µM |  | 21.7 µM | 4.91 µM | 40 µM
7 | C/C(=N\Nc1ccc([N+](=O)[O-])cc1[N+](=O)[O-])c1sc(-n2nc(-c3ccccc3)cc2-c2ccccc2)nc1C | > 100 µM |  | 46.8 µM |  | > 100 µM | > 100 µM | > 100 µM | 44.5 µM | > 100 µM | > 100 µM | 33.8 µM | > 100 µM | > 100 µM | > 100 µM | > 100 µM | > 100 µM
8 | O=C(NC1=C(Cl)C(=O)c2ccccc2C1=O)c1ccc(F)cc1 | 19.3 µM | > 100 µM | 7.13 µM | 5.4 µM | 18.7 µM | 10.6 µM | 4.93 µM | > 100 µM | 18.9 µM | 12.5 µM | 11.5 µM | 18.3 µM | 12.3 µM |  | 14.8 µM | 17.3 µM
9 | CN1c2ccccc2C(=O)NC12CCN(CCCC(=O)c1ccc(F)cc1)CC2 | > 100 µM | > 100 µM | 71.2 µM | > 100 µM | > 100 µM | > 100 µM | > 100 µM | > 100 µM | > 100 µM | 32.5 µM | 56.1 µM | > 100 µM | > 100 µM | 79.6 µM | > 100 µM | 
10 | CCOC(=O)C1C(c2ccc3c(c2)OCO3)c2c([nH][nH]c2=O)CC1(C)O (centres undefined) | > 100 µM | > 100 µM | > 100 µM |  | > 100 µM | > 100 µM | > 100 µM | > 100 µM | > 100 µM | > 100 µM | > 100 µM | > 100 µM | > 100 µM | > 100 µM | > 100 µM | > 100 µM
11 | NC(N)=NCC[C@H](NC(=O)OCCCCCn1ccc(=O)[nH]c1=O)C(=O)O | > 100 µM | > 100 µM | > 100 µM | > 100 µM | > 100 µM | > 100 µM | > 100 µM | > 100 µM | > 100 µM |  | > 100 µM | > 100 µM | > 100 µM | > 100 µM | > 100 µM | > 100 µM
